# Test: Phase 1 pharmacokinetic evaluation of nalmefene IN with and without Intravail vs IM injection
smiles,measurement,setting,value
"C=C1CC[C@@]2(O)[C@H]3Cc4ccc(O)c5c4[C@@]2(CCN3CC2CC2)[C@H]1O5 [Nalmefene, 17-cyclopropylmethyl-4,5α-epoxy-6-methylenemorphinan-3,14-diol]","AUCextrap, mean",1.5 mg IM,22.6%
same,"Cmax/D, mean",1.5 mg IM,1.12 ng/mL/mg
same,"Lambda z, mean",1.5 mg IM,0.094 h⁻¹
same,"AUCextrap, mean",1.5 mg IN,30.6%
same,"Cmax/D, mean",1.5 mg IN,0.646 ng/mL/mg
same,"Half-life, mean",1.5 mg IN,6.74 h
same,"Lambda z, mean",1.5 mg IN,0.131 h⁻¹
same,"AUCextrap, mean",3 mg IN,17.9%
same,"Cmax/D, mean",3 mg IN,0.731 ng/mL/mg
same,"Lambda z, mean",3 mg IN,0.101 h⁻¹
same,"AUCextrap, mean",3 mg plus […] Intravail IN,14.6%
same,"Cmax/D, mean",3 mg plus […] Intravail IN,1.65 ng/mL/mg
same,"Lambda z, mean",3 mg plus […] Intravail IN,0.117 h⁻¹
same,concentration at 0 h,"human, in vivo, 1.5 mg",0 ng/mL
same,concentration at 0.04 h,"human, in vivo, 1.5 mg",0 ng/mL
same,concentration at 0.08 h,"human, in vivo, 1.5 mg",0 ng/mL
same,concentration at 30 h,"human, in vivo, 1.5 mg",0 ng/mL
same,concentration at 36 h,"human, in vivo, 1.5 mg",0 ng/mL
same,concentration at 48 h,"human, in vivo, 1.5 mg",0 ng/mL
same,concentration at 60 h,"human, in vivo, 1.5 mg",0 ng/mL
same,concentration at 72 h,"human, in vivo, 1.5 mg",0 ng/mL
same,concentration at 0 h,"human, in vivo, 3 mg",0 ng/mL
same,concentration at 0.04 h,"human, in vivo, 3 mg",0 ng/mL
same,concentration at 0.08 h,"human, in vivo, 3 mg",0 ng/mL
same,concentration at 48 h,"human, in vivo, 3 mg",0 ng/mL
same,concentration at 60 h,"human, in vivo, 3 mg",0 ng/mL
same,concentration at 72 h,"human, in vivo, 3 mg",0 ng/mL
